Data from ChEMBL document CHEMBL5303573, “Mapping human microbiome drug metabolism by gut bacteria and their genes” (Nature, 2019).

How the values were obtained:
[1] = The drug is tested on Collinsella aerofaciens strain: ATCC25986 for biotransformation. The drug concentrations were measured before and after a 12-h incubation by liquid-chromatography-coupled mass spectrometry (LC–MS); conditions: 2 µM
[2] = The drug is tested on Bacteroides coprophilus strain: DSM18228 for biotransformation. The drug concentrations were measured before and after a 12-h incubation by liquid-chromatography-coupled mass spectrometry (LC–MS); conditions: 2 µM
[3] = The drug is tested on Parabacteroides merdae strain: ATCC43184 for biotransformation. The drug concentrations were measured before and after a 12-h incubation by liquid-chromatography-coupled mass spectrometry (LC–MS); conditions: 2 µM
[4] = The drug is tested on Clostridium ramosum strain: DSM1402 for biotransformation. The drug concentrations were measured before and after a 12-h incubation by liquid-chromatography-coupled mass spectrometry (LC–MS); conditions: thomasclavelia ramosa, 2 µM
[5] = The drug is tested on Clostridium scindens strain: ATCC35704 for biotransformation. The drug concentrations were measured before and after a 12-h incubation by liquid-chromatography-coupled mass spectrometry (LC–MS); conditions: 2 µM
[6] = The drug is tested on Clostridium sporogenes strain: ATCC15579 for biotransformation. The drug concentrations were measured before and after a 12-h incubation by liquid-chromatography-coupled mass spectrometry (LC–MS); conditions: 2 µM
[7] = The drug is tested on Enterococcus faecalis strain: V583 for biotransformation. The drug concentrations were measured before and after a 12-h incubation by liquid-chromatography-coupled mass spectrometry (LC–MS); conditions: 2 µM
[8] = The drug is tested on Eubacterium hallii strain: DSM3353 for biotransformation. The drug concentrations were measured before and after a 12-h incubation by liquid-chromatography-coupled mass spectrometry (LC–MS); conditions: anaerobutyricum hallii, 2 µM
[9] = The drug is tested on Eubacterium ventriosum strain: ATCC27560 for biotransformation. The drug concentrations were measured before and after a 12-h incubation by liquid-chromatography-coupled mass spectrometry (LC–MS); format: ADME; parameters: dose 2 uM, timepoint 0 vs 12 hours; conditions: 2 µM
[10] = The drug is tested on Ruminococcus gnavus strain: ATCC29149 for biotransformation. The drug concentrations were measured before and after a 12-h incubation by liquid-chromatography-coupled mass spectrometry (LC–MS); conditions: mediterraneibacter gnavus, 2 µM
[11] = The drug is tested on Ruminococcus lactaris strain: ATCC29176 for biotransformation. The drug concentrations were measured before and after a 12-h incubation by liquid-chromatography-coupled mass spectrometry (LC–MS); conditions: 2 µM
[12] = The drug is tested on Escherichia coli strain: BW25113 for biotransformation. The drug concentrations were measured before and after a 12-h incubation by liquid-chromatography-coupled mass spectrometry (LC–MS); conditions: 2 µM
[13] = The drug is tested on Providencia stuartii strain: ATCC25827 for biotransformation. The drug concentrations were measured before and after a 12-h incubation by liquid-chromatography-coupled mass spectrometry (LC–MS); conditions: 2 µM
[14] = bifidobacterium adolescentis, 12 h, 2 µM
Description: The drug is tested on Bifidobacterium adolescentis strain: ATCC 15703 for biotransformation. The drug concentrations were measured before and after a 12-h incubation by liquid-chromatography-coupled mass spectrometry (LC–MS)

[15] = bacteroides fragilis, 12 h, 2 µM
Description: The drug is tested on Bacteroides fragilis strain: NCTC 9343 for biotransformation. The drug concentrations were measured before and after a 12-h incubation by liquid-chromatography-coupled mass spectrometry (LC–MS)

[16] = bacteroides thetaiotaomicron, 12 h, 2 µM
Description: The drug is tested on Bacteroides thetaiotaomicron strain: 3731 for biotransformation. The drug concentrations were measured before and after a 12-h incubation by liquid-chromatography-coupled mass spectrometry (LC–MS)

[17] = enterocloster bolteae, 12 h, 2 µM
Description: The drug is tested on Clostridium bolteae strain: ATCCBAA-613 for biotransformation. The drug concentrations were measured before and after a 12-h incubation by liquid-chromatography-coupled mass spectrometry (LC–MS)

[18] = The drug is tested on Alistipes indistinctus strain: DSM22520 for biotransformation. The drug concentrations were measured before and after a 12-h incubation by liquid-chromatography-coupled mass spectrometry (LC–MS); conditions: 2 µM
[19] = parabacteroides johnsonii, 12 h, 2 µM
Description: The drug is tested on Parabacteroides johnsonii strain: DSM18315 for biotransformation. The drug concentrations were measured before and after a 12-h incubation by liquid-chromatography-coupled mass spectrometry (LC–MS)

Compound | Bacterial Biotransformation [1] | Bacterial Biotransformation [2] | Bacterial Biotransformation [3] | Bacterial Biotransformation [4] | Bacterial Biotransformation [5] | Bacterial Biotransformation [6] | Bacterial Biotransformation [7] | Bacterial Biotransformation [8] | Bacterial Biotransformation [9] | Bacterial Biotransformation [10] | Bacterial Biotransformation [11] | Bacterial Biotransformation [12] | Bacterial Biotransformation [13] | Bacterial Biotransformation [14] | Bacterial Biotransformation [15] | Bacterial Biotransformation [16] | Bacterial Biotransformation [17] | Bacterial Biotransformation [18] | Bacterial Biotransformation [19]
CN1CCN2c3ccccc3Cc3ccccc3C2C1 (stereo not drawn) [MIANSERIN] | Compound NOT metabolized | Compound NOT metabolized | Compound NOT metabolized | Compound NOT metabolized | Compound NOT metabolized | Compound NOT metabolized | Compound NOT metabolized | Compound NOT metabolized | Compound NOT metabolized | Compound NOT metabolized | Compound NOT metabolized | Compound NOT metabolized | Compound NOT metabolized | Compound NOT metabolized | Compound NOT metabolized | Compound NOT metabolized | Compound NOT metabolized | – | –
CN1[C@@H]2CC[C@H]1C[C@@H](OC(=O)C(CO)c1ccccc1)C2 (stereo partly drawn) [ATROPINE] | Compound NOT metabolized | Compound NOT metabolized | – | – | – | – | – | Compound NOT metabolized | Compound NOT metabolized | Compound NOT metabolized | – | – | – | Compound NOT metabolized | Compound NOT metabolized | – | – | Compound NOT metabolized | –
CC(C)c1c(CN(C)C(C)Cc2ccccc2)n(C)n(-c2ccccc2)c1=O (stereo not drawn) [FAMPROFAZONE] | Compound metabolized | Compound metabolized | Compound metabolized | – | Compound NOT metabolized | Compound NOT metabolized | Compound NOT metabolized | Compound NOT metabolized | Compound NOT metabolized | Compound NOT metabolized | Compound NOT metabolized | Compound NOT metabolized | Compound NOT metabolized | Compound NOT metabolized | Compound metabolized | Compound metabolized | Compound metabolized | Compound NOT metabolized | Compound metabolized
CN(C)CCC=C1c2ccccc2COc2ccccc21 [DOXEPIN] | Compound NOT metabolized | Compound NOT metabolized | Compound NOT metabolized | – | Compound NOT metabolized | Compound NOT metabolized | Compound NOT metabolized | Compound NOT metabolized | Compound NOT metabolized | Compound NOT metabolized | Compound NOT metabolized | Compound NOT metabolized | Compound NOT metabolized | Compound NOT metabolized | – | Compound NOT metabolized | Compound NOT metabolized | Compound NOT metabolized | Compound NOT metabolized
CC1Cc2ccccc2N1NC(=O)c1ccc(Cl)c(S(N)(=O)=O)c1 (stereo not drawn) [INDAPAMIDE] | – | Compound NOT metabolized | Compound NOT metabolized | Compound NOT metabolized | Compound NOT metabolized | Compound NOT metabolized | Compound NOT metabolized | Compound NOT metabolized | – | Compound NOT metabolized | Compound NOT metabolized | – | – | Compound NOT metabolized | Compound NOT metabolized | Compound NOT metabolized | Compound NOT metabolized | Compound NOT metabolized | Compound NOT metabolized
CCN(CC)C(C)CN1c2ccccc2Sc2ccccc21 (stereo not drawn) [ETHOPROPAZINE] | Compound NOT metabolized | Compound NOT metabolized | – | – | Compound NOT metabolized | Compound NOT metabolized | Compound NOT metabolized | Compound NOT metabolized | Compound NOT metabolized | Compound NOT metabolized | Compound NOT metabolized | Compound metabolized | Compound metabolized | Compound NOT metabolized | Compound NOT metabolized | Compound NOT metabolized | Compound NOT metabolized | Compound NOT metabolized | Compound metabolized
OCCN(CCO)c1nc(N2CCCCC2)c2nc(N(CCO)CCO)nc(N3CCCCC3)c2n1 [DIPYRIDAMOLE] | Compound NOT metabolized | Compound NOT metabolized | Compound metabolized | – | Compound NOT metabolized | Compound metabolized | Compound NOT metabolized | Compound NOT metabolized | Compound NOT metabolized | Compound NOT metabolized | – | Compound NOT metabolized | Compound NOT metabolized | Compound NOT metabolized | Compound metabolized | Compound NOT metabolized | – | Compound NOT metabolized | Compound metabolized
COC(=O)Nc1nc2ccc(C(=O)c3ccccc3)cc2[nH]1 [MEBENDAZOLE] | – | Compound NOT metabolized | Compound NOT metabolized | Compound NOT metabolized | Compound NOT metabolized | – | Compound NOT metabolized | Compound NOT metabolized | Compound NOT metabolized | Compound NOT metabolized | – | Compound NOT metabolized | – | – | Compound metabolized | Compound NOT metabolized | Compound NOT metabolized | Compound NOT metabolized | Compound NOT metabolized
CCN(CC)CC#CCOC(=O)C(O)(c1ccccc1)C1CCCCC1.Cl (stereo not drawn) [OXYBUTYNIN CHLORIDE] | Compound NOT metabolized | – | Compound NOT metabolized | – | Compound NOT metabolized | Compound NOT metabolized | Compound metabolized | Compound NOT metabolized | Compound metabolized | Compound NOT metabolized | Compound NOT metabolized | Compound NOT metabolized | Compound NOT metabolized | Compound NOT metabolized | – | Compound NOT metabolized | – | Compound NOT metabolized | Compound NOT metabolized
CCOC(=O)[C@H](CCc1ccccc1)N[C@@H](C)C(=O)N1CCC[C@H]1C(=O)O.O=C(O)/C=C\C(=O)O [ENALAPRIL MALEATE] | Compound NOT metabolized | – | Compound NOT metabolized | Compound NOT metabolized | Compound NOT metabolized | Compound NOT metabolized | Compound NOT metabolized | Compound NOT metabolized | Compound NOT metabolized | Compound NOT metabolized | Compound NOT metabolized | Compound NOT metabolized | Compound NOT metabolized | Compound NOT metabolized | Compound NOT metabolized | Compound NOT metabolized | Compound NOT metabolized | – | –
